The species named for assay [1] is Mus musculus. Description: Inhibitory activity derived from Anastatica hierochuntica on D-Gal-induced cytotoxicity in primary cultured mouse hepatocytes at a concentration of 0 uM. The class given is functional, Hepatocyte.
Assay [2] is filed under the species Mus musculus. Description: Inhibitory activity derived from Anastatica hierochuntica on D-Gal-induced cytotoxicity in primary cultured mouse hepatocytes at a concentration of 10 uM. It counts as functional. Conditions: Hepatocyte.
Assay [3] is filed under the species Mus musculus. Description: Inhibitory activity derived from Anastatica hierochuntica on D-Gal-induced cytotoxicity in primary cultured mouse hepatocytes at a concentration of 30 uM. The class given is functional. Conditions: Hepatocyte.
The species named for assay [4] is Mus musculus. Description: Inhibitory activity derived from Anastatica hierochuntica on D-Gal-induced cytotoxicity in primary cultured mouse hepatocytes at a concentration of 3 uM. Conditions: Hepatocyte. The class given is functional.

As usually defined, the Inhibition is how much of the control response was suppressed. The low end stands for little suppression, the high end for strong suppression. What is called inhibition is the drop in the measured response relative to a control, in per cent. Higher therefore signals strong suppression.

For the compound `COc1cc([C@H]2Oc3cc(O)cc(O)c3C(=O)[C@@H]2O)ccc1O`, the Inhibition in assay [1] stood at 0%. Moreover, the inhibition at 10 µM in assay [2] is 7.3%. This compound also showed an inhibition at 30 µM in assay [3] of 36.7%. Further, the inhibition at 3 µM in assay [4] was 4%.
The corresponding values for `O=C1c2c(O)cc(O)cc2O[C@@H](c2ccc(O)c(O)c2)[C@H]1O` [(+)-EPITAXIFOLIN] are 0%, 11%, 21.7% and 2.1%.
The corresponding values for `O=C1c2c(O)cc(O)cc2O[C@H](c2ccc(O)c(O)c2)[C@H]1O` [(+)-TAXIFOLIN] are 0%, 11.7%, 13% and 9.6%.
On the same counts, the results for `O=C1C[C@@H](c2ccc(O)cc2)Oc2cc3oc4cc(O)c(O)cc4c3c(O)c21` [ANASTATIN A] are 0%, 31.5%, 46.2% and 17.2%.
Take `O=C1C[C@@H](c2ccc(O)cc2)Oc2c1c(O)cc1oc3cc(O)c(O)cc3c21` [ANASTATIN B]: the Inhibition in assay [1] worked out at 0%. Besides, in assay [2], at 10 µM the inhibition was 40.5%. The compound further came in with an inhibition at 30 µM in assay [3] of 55%. In assay [4], this compound registered an inhibition at 3 µM of 28.6%.
The corresponding values for `O=C1c2c(O)cc(O)cc2O[C@H](c2ccc(O)cc2)[C@H]1O` [DIHYDROKAEMPFEROL] are 0%, 14.2%, 33.2% and 7.8%.
The corresponding values for `O=C1C[C@@H](c2ccc(O)c(O)c2)Oc2cc(O)cc(O)c21` [ERIODICTYOL] are 0%, 8.3%, 27.3% and 5.9%.
The corresponding values for `O=C1C[C@@H](c2ccc(O)cc2)Oc2cc(O)cc(O)c21` [NARINGENIN] are 0%, 9.3%, 43.1% and 2.9%.
For the compound `COc1cc(C2Oc3cc([C@H]4Oc5cc(O)cc(O)c5C(=O)[C@@H]4O)ccc3OC2CO)ccc1O` (stereo partly specified) [SILIBININ], in assay [1], the Inhibition is 0%. This compound had an inhibition at 10 µM in assay [2] of 7.7%. In addition, at 30 µM the inhibition in assay [3] was 45.2%. The compound also came in with an inhibition at 3 µM in assay [4] of 4.8%.

(Values after ChEMBL document CHEMBL1136641, “Anastatins A and B, new skeletal flavonoids with hepatoprotective activities from the desert plant Anastatica hierochuntica” (2003).)
